Test [1] deals with human RORγt ligand binding domain (RORγt LBD) (Homo sapiens (Human), UniProt P51449). Kind of test: RORγt ThermoFluor assay (thermal shift binding affinity). The conditions noted are these: estimated from thermal shift. On the procedure:
This approach is applicable to a wide variety of systems, and rigorous in theoretical interpretation through quantitation of equilibrium binding constants (KD).
The shift in the melting point described as a ΔTm is proportional to the concentration and affinity of the ligand.
RORγt ThermoFluor® Assay Construct
Protein and compound solutions are dispensed into black 384-well polypropylene PCR microplates (Abgene) and overlayed with silicone oil (1 μL, Fluka, type DC 200) to prevent evaporation.
Bar-coded assay plates are robotically loaded onto a thermostatically controlled PCR-type thermal block and then heated at a typical ramp-rate of 1° C./min for all experiments. Fluorescence was measured by continuous illumination with UV light (Hamamatsu LC6) supplied via fiber optic and filtered through a band-pass filter (380-400 nm; >6 OD cutoff). Fluorescence emission of the entire 384-well plate was detected by measuring light intensity using a CCD camera (Sensys, Roper Scientific) filtered to detect 500±25 nm, resulting in simultaneous and independent readings of all 384 wells. Images were collected at each temperature, and the sum of the pixel intensity in a given area of the assay plate was recorded versus temperature. Reference wells contained RORγt without compounds, and the assay conditions were as follows: • 0.065 mg/mL RORγt • 60 μM 1,8-ANS • 100 mM Hepes, pH 7.0 • 10 mM NaCl • 2.5 mM GSH • 0.002% Tween-20
Project compounds were arranged in a pre-dosed mother plate (Greiner Bio-one) wherein compounds are serially diluted in 100% DMSO by 1:2 from a high concentration of 10 mM over 12 columns within a series (column 12 is a reference well containing DMSO, no compound). The compounds were robotically dispensed directly into assay plates (1×=46 nL) using a Hummingbird capillary liquid handling instrument (Digilab). Following compound dispense, protein and dye in buffer was added to achieve the final assay volume of 3 μL, followed by 1 μL of silicone oil.

The target in the next test is human RORγt LBD (Homo sapiens (Human), UniProt P51449). Kind of test: RORγt reporter assay (GAL4-RORγt LBD luciferase in HEK293T cells). The conditions noted are these: for IC50 / RORγt reporter Assay, % inhibition @ 6 μM: HEK293T cells; for IC50: 24 hours compound treatment; for inhibition at 6 µM: HEK-293T, read-out: RORγt reporter Assay, % inhibition @ 6 μM, HEK293T cells, 6 μM. Type of test: cell-based. An excerpt: A reporter assay was used to test functional activity of RORγt modulatory compounds on transcriptional activation driven by the RORγt LBD. Cells used in the assay were co-transfected with two constructs. The first construct, pBIND-RORγt LBD, contained the wild type human RORγt LBD fused to the DNA binding domain of the GAL4 protein. The second construct, pGL4.31 (Promega Cat no. C935A), contained multiple GAL4 responsive DNA elements upstream of firefly luciferase. […] The mutant construct was called pBIND-RORγt-AF2.
human RORγt LBD, sequence (P51449 258-518): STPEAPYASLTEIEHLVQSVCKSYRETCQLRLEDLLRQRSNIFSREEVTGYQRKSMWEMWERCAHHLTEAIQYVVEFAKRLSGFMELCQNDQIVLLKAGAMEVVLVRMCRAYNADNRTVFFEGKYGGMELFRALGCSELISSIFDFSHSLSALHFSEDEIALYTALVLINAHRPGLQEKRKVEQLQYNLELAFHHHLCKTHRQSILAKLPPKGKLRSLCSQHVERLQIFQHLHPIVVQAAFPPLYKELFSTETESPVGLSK
The pBIND vector contains the GAL4 DNA Binding Domain (GAL4 DBD) and the renilla luciferase gene under control of the SV40 promoter. Renilla luciferase expression serves as a control for transfection efficiency and cell viability.
The reporter assay was performed by transiently transfecting HEK293T cells with 5 ng of pBIND-RORγt LBD or pBIND-RORγt LBD-AF2 and 5 μg pGL4.31 (Promega Cat no. C935A) using Fugene 6 ([…] Cat no. E2691) at a 1:6 ratio of DNA: Fugene 6 in a T-75 flask in which cells were at least 80% confluent. Twenty four hours after bulk transfection, cells were plated into 96-well plates at 50,000 cells/well in phenol-red free DMEM containing 5% Lipid Reduced FCS and Pen/Strep. Six hours after plating, cells were treated with compounds for 24 hours. Media was removed and cells were lysed with 50 μL 1× Glo Lysis Buffer (Promega). Dual Glo Luciferase Reagent (50 μL/well) was then added and firefly luciferase luminescence was read on an Envision after a ten minute incubation. Finally, Stop and Glo reagent (50 μL/well) was added and renilla luciferase luminescence was read on an Envision after a ten minute incubation. To calculate the effect of compounds on RORγt activity, the ratio of firefly to renilla luciferase was determined and plotted against compound concentration. Agonist compounds increase RORγt-driven luciferase expression, and antagonist or inverse agonist compounds decrease luciferase expression.
In general terms: A reporter such as luciferase makes a cellular process visible.

Where a name gives a salt, the structure may show the parent alone.

We go through 17 molecules from US9290476B2, “Methylene linked quinolinyl modulators of RORγt” (Janssen Pharmaceutica NV, priority 2012, dated 2016).

human RORγt ligand binding domain (RORγt LBD), sequence (P51449 other isoform, or with tags, fused parts or gaps): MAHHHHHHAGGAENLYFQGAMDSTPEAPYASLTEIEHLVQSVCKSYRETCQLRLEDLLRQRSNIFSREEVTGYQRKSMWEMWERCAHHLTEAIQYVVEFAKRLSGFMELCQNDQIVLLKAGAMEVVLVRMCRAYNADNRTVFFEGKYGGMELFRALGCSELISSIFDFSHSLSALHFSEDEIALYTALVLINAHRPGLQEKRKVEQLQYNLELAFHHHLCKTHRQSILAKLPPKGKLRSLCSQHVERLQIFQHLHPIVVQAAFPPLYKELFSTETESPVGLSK

For orientation: Kd means the equilibrium constant for the complex coming apart. In general, IC50 refers to the point on the concentration scale where inhibition reaches its midpoint. Lower therefore signals higher potency. Usually inhibition stands for the drop in the measured response relative to a control, in per cent. Consider `COc1nc2ccc(C(O)(c3ccc(N(C)C)cc3)c3cccnc3)cc2c(Cl)c1Cc1ccc(-n2cccn2)cc1` (stereo not drawn) [Example 42, (3-(4-(1H-Pyrazol-1-yl)benzyl)-4-chloro-2-methoxyquinolin-6-yl)(4-(dimethylamino)phenyl)(pyridin-3-yl)methanol], for which the Kd in test [1] was 0.36 µM. Also, at human RORγt LBD, the IC50 was found to be 0.18 µM and the inhibition at 6 µM came to 96%.

Consider `Cn1cncc1C(O)(c1ccc(Cl)cc1)c1ccc2nc(O)c(Cc3ccc(-n4cccn4)cc3)c(Cl)c2c1` (single isomer, unassigned) [Example 55C, 3-(4-(1H-pyrazol-1-yl)benzyl)-4-chloro-6-((4-chlorophenyl)(hydroxy)(1-methyl-1H-imidazol-5-yl)methyl)quinolin-2-ol], for which the Kd in test [1] is 3.5 µM. At human RORγt LBD, the “RORγt reporter Assay, % inhibition @ 6 μM” value came out at 92% and the midpoint of inhibition, the IC50, lay at 3.2 µM.

For `COc1ccc(Cc2c(Cl)nc3ccc(C(O)(c4cccnc4)c4cccc(Cl)c4)cc3c2Cl)cc1` (stereo not drawn) [Example 6, (3-Chlorophenyl)-(2,4-dichloro-3-(4-methoxybenzyl)quinolin-6-yl)-(pyridin-3-yl)methanol.TFA], the Kd in test [1] is 0.015 µM. On human RORγt LBD, the IC50 was approximately 2 µM and the inhibition at 6 µM is 96%.

With `CCOc1nc2ccc(C(O)(c3ccc(OC)nc3)c3cncs3)cc2c(Cl)c1Cc1ccccc1` (stereo not drawn) [Example 19, (3-Benzyl-4-chloro-2-ethoxyquinolin-6-yl)(6-methoxypyridin-3-yl)(thiazol-5-yl)methanol], in test [1], the Kd is 0.0027 µM. Moreover, on human RORγt LBD, the IC50 amounted to 6.6 µM and the inhibition at 6 µM is 57%.

On to `COc1nc2c(C)cc(C(O)(c3cncn3C)c3cncn3C)cc2c(Cl)c1Cc1ccc(-n2cccn2)cc1` [Example 56, (3-(4-(1H-Pyrazol-1-yl)benzyl)-4-chloro-2-methoxy-8-methylquinolin-6-yl)bis(1-methyl-1H-imidazol-5-yl)methanol], for which, in test [1], the Kd was 0.00029 µM. Besides, at human RORγt LBD, the IC50 was found to be 0.012 µM and the inhibition at 6 µM came out at 102%.

Consider `CCN(CC)c1nc2ccc(C(O)(c3ccc(Cl)cc3)c3cncn3C)cc2c(Cl)c1Cc1ccc(-n2cccn2)cc1` (single isomer, unassigned) [Example 75B, (3-(4-(1H-Pyrazol-1-yl)benzyl)-4-chloro-2-(diethylamino)quinolin-6-yl)(4-chlorophenyl)(1-methyl-1H-imidazol-5-yl)methanol], for which, in test [1], the Kd is 8.6 µM. Also, on human RORγt LBD, the “RORγt reporter Assay, % inhibition @ 6 μM” value was 39% and the IC50 is more than 6 µM.

In the case of `Cc1nc2ccc(C(O)(c3ccc(Cl)cc3)c3cncn3C)cc2c(C)c1Cc1ccccc1` (stereo not drawn) [Example 50, (3-Benzyl-2,4-dimethylquinolin-6-yl)(4-chlorophenyl)(1-methyl-1H-imidazol-5-yl)methanol.TFA], the Kd in test [1] was 0.32 µM. At human RORγt LBD, the IC50 is more than 6 µM and the inhibition at 6 µM came to 71%.

As to `Cn1cncc1C(O)(c1ccc(C(F)(F)F)nc1)c1ccc2nc(N3CCC3)c(Cc3ccc(-n4cccn4)cc3)c(Cl)c2c1` (stereo not drawn) [Example 68A, (3-(4-(1H-Pyrazol-1-yl)benzyl)-2-(azetidin-1-yl)-4-chloroquinolin-6-yl)(1-methyl-1H-imidazol-5-yl)(6-(trifluoromethyl)pyridin-3-yl)methanol], the Kd in test [1] was 0.0083 µM. Moreover, on human RORγt LBD, the midpoint of inhibition, the IC50, lay at 0.21 µM and the inhibition at 6 µM was determined as 99%.

For the molecule `COc1nc2c(OC)cc(C(O)(c3ccc(C(F)(F)F)nc3)c3cncn3C)cc2c(Cl)c1Cc1ccc(-n2cccn2)cc1` (single isomer, unassigned) [Example 59C, (3-(4-(1H-pyrazol-1-yl)benzyl)-4-chloro-2,8-dimethoxyquinolin-6-yl)(1-methyl-1H-imidazol-5-yl)(6-(trifluoromethyl)pyridin-3-yl)methanol], the Kd in test [1] is 0.22 µM. Also, at human RORγt LBD, the “RORγt reporter Assay, % inhibition @ 6 μM” value came out at 108% and the IC50 was found to be 0.57 µM.

Turning to `Cn1cncc1C(O)(c1ccc(C(F)(F)F)nc1)c1ccc2nc(N3CCC3)c(Cc3ccc(C(F)(F)F)cc3)c(Cl)c2c1` (racemic) [Example 92A, (2-(Azetidin-1-yl)-4-chloro-3-(4-(trifluoromethyl)benzyl)quinolin-6-yl)(1-methyl-1H-imidazol-5-yl)(6-(trifluoromethyl)pyridin-3-yl)methanol], in test [1], the Kd was 0.0025 µM. At human RORγt LBD, the IC50 was determined as 0.029 µM and the inhibition at 6 µM turned out to be 100%.

`COc1nc2c(C)cc(C(O)(c3ccc(C(F)(F)F)nc3)c3cncn3C)cc2c(Cl)c1Cc1ccc(-n2cccn2)cc1` (stereo not drawn) [Example 29A, (3-(4-(1H-Pyrazol-1-yl)benzyl)-4-chloro-2-methoxy-8-methylquinolin-6-yl)(1-methyl-1H-imidazol-5-yl)(6-(trifluoromethyl)pyridin-3-yl)methanol]: the Kd in test [1] was 0.0048 µM. At human RORγt LBD, the IC50 is 0.091 µM and the inhibition at 6 µM stood at 96%.

For the molecule `COc1ccc(Cc2c(Cl)nc3ccc(C(O)(c4ccc(Cl)cc4)c4cncn4C)cc3c2Cl)cc1` (stereo not drawn) [Example 12, (4-Chlorophenyl)(2,4-dichloro-3-(4-methoxybenzyl)quinolin-6-yl)(1-methyl-1H-imidazol-5-yl)methanol.TFA], the Kd in test [1] was 0.016 µM. On human RORγt LBD, the IC50 is approximately 7 µM and the inhibition at 6 µM was 77%.

As to `OC(c1cccnc1)(c1cccc(Cl)c1)c1ccc2nc(Cl)c(Cc3cccc(Cl)c3)c(Cl)c2c1` (stereo not drawn) [Example 4, (3-Chlorophenyl)-(2,4-dichloro-3-(3-chlorobenzyl)quinolin-6-yl)-(pyridin-3-yl)methanol.TFA], the Kd in test [1] is 0.0077 µM. Further, on human RORγt LBD, the IC50 is approximately 6 µM and the inhibition at 6 µM came out at 46%.

Regarding `COc1nc2ccc(C(O)(c3ccc(Cl)cc3)c3cncn3C)cc2c(Cl)c1Cc1cc2ccccc2s1` (single isomer, unassigned) [Example 36B, (3-(benzo[b]thiophen-2-ylmethyl)-4-chloro-2-methoxyquinolin-6-yl)(4-chlorophenyl)(1-methyl-1H-imidazol-5-yl)methanol], the Kd in test [1] was 0.4 µM. On human RORγt LBD, the “RORγt reporter Assay, % inhibition @ 6 μM” value is recorded as 62% and half-maximal inhibition (IC50) was put at 0.74 µM.

On to `CCN(CC)c1nc2ccc(C(O)(c3ccc(C(F)(F)F)nc3)c3cncn3C)cc2c(C#N)c1Cc1ccc(-n2cccn2)cc1` (single isomer, unassigned) [Example 74C, 3-(4-(1H-Pyrazol-1-yl)benzyl)-2-(diethylamino)-6-(hydroxy(1-methyl-1H-imidazol-5-yl)(6-(trifluoromethyl)pyridin-3-yl)methyl)quinoline-4-carbonitrile], for which, in test [1], the Kd was 21 µM. In addition, at human RORγt LBD, the “RORγt reporter Assay, % inhibition @ 6 μM” value turned out to be 90% and half-maximal inhibition (IC50) required 0.93 µM.

On to `COc1nc2c(C)cc(C(O)(c3cncn3C)c3cncn3C)cc2c(Cl)c1Cc1ccc(S(C)(=O)=O)cc1` [Example 57, (4-Chloro-2-methoxy-8-methyl-3-(4-(methylsulfonyl)benzyl)quinolin-6-yl)bis(1-methyl-1H-imidazol-5-yl)methanol.Succinate], for which, in test [1], the Kd was 0.0084 µM. For the same molecule, at human RORγt LBD, the IC50 was found to be 0.057 µM and the inhibition at 6 µM turned out to be 100%.

Regarding `COc1nc2ccc(C(O)(c3cnnn3C)c3cnc(C)n3C)cc2c(C#N)c1Cc1ccc(C(F)(F)F)cc1` (stereo not drawn) [Example 81A, 6-((1,2-Dimethyl-1H-imidazol-5-yl)(hydroxy)(1-methyl-1H-1,2,3-triazol-5-yl)methyl)-2-methoxy-3-(4-(trifluoromethyl)benzyl)quinoline-4-carbonitrile], in test [1], the Kd was 0.00012 µM. Besides, at human RORγt LBD, half-maximal inhibition (IC50) was put at 0.0021 µM and the inhibition at 6 µM was 104%.
